Marks after values point to notes of the source that are not given here.
Test system: monobenzone-induced mouse vitiligo model
Test: Monobenzone-induced mouse vitiligo model: hair depigmentation area scoring
Format: in vivo, C57BL/6 mice
Design: Hair depigmentation area scoring: scale not given here
Method: • 1) Animals: C57BL/6 mice, specific pathogen-free (SPF), with equal numbers of females and males. The mice were 6-8 weeks old at grouping, with 10 mice per group. The animals were provided by Charles River Laboratories. • 2) Reagents, positive drugs and test drugs
Monobenzone induction method: after 1 week of adaptive feeding of all the animals, modeling was performed and all black hairs on the back of the mice were removed by a shaver. 10 animals were randomly selected as a normal control group and applied with 50 mg of vaseline once a day; and the remaining 80 animals were used for modeling and applied with 50 mg of 40% monobenzone depigmentation ointment once a day. The applying area of the normal control group and the model group was 2 cm*3 cm of the fixed part of the back, and the modeling was continuously performed for 103 days. In order to prevent the phenomenon that the animals lick the drugs, after the animals were applied with a modeling agent, they needed to be separately placed in an independent cage without padding for a period of time to naturally dry the modeling agent, and then they were placed in a rearing cage for normal rearing. During the modeling process, new hairs grown in the alopecic areas of the backs of the mice were shaved by the shaver and then applied with the drug.
The 40% monobenzone depigmentation ointment was applied every day. After modeling for 53 days, according to a depigmentation area score (see scoring criteria of Table 9), 70 animals successfully modeled in modeling group (score ≥ 2) were randomly divided into 7 groups with 10 mice per group. The mean depigmentation area score of the animals in each group was basically consistent before the administration, and the day of grouping was defined as day 0 of the administration treatment period. Table 8 Grouping and administration regimen
During the whole experiment process, the mice in normal control group (G1) were applied with 50 mg of vaseline once a day; and the mice in each model group (G2-G8) were applied with 50 mg of 40% monobenzone ointment once a day. After modeling for 53 days, the mice were grouped and subjected to drug treatment after grouping consecutively for 50 days. The modeling operation was maintained during the drug intervention period. The mice were applied with the drug twice a day for treatment at an interval of 6 hours or more. […]

With `CN(c1ncnc2[nH]ccc12)[C@@H]1CCc2cc(C#N)nn2C1` [compound I] the “Hair depigmentation area scoring” value (Day 0 (before administration), 0.5% compound I gel group) was 3.80, the “Hair depigmentation area scoring” value (Day 0 (before administration), 1% compound I gel group) was 3.70 and the “Hair depigmentation area scoring” value (Day 0 (before administration), 2% compound I gel group) was 3.80. The “Hair depigmentation area scoring” value (Day 10, 0.5% compound I gel, 30 mg topical twice a day) was 3.60 **, the “Hair depigmentation area scoring” value (Day 10, 1% compound I gel, 30 mg topical twice a day) was 3.90 ** and the “Hair depigmentation area scoring” value (Day 10, 2% compound I gel, 30 mg topical twice a day) was 4.00 **. The “Hair depigmentation area scoring” value (Day 20, 0.5% compound I gel, 30 mg topical twice a day) was 3.60 **, the “Hair depigmentation area scoring” value (Day 20, 1% compound I gel, 30 mg topical twice a day) was 3.60 ** and the “Hair depigmentation area scoring” value (Day 20, 2% compound I gel, 30 mg topical twice a day) was 3.50 **. For the same compound, the “Hair depigmentation area scoring” value (Day 30, 0.5% compound I gel, 30 mg topical twice a day) was 3.30 **, the “Hair depigmentation area scoring” value (Day 30, 1% compound I gel, 30 mg topical twice a day) was 3.40 ** and the “Hair depigmentation area scoring” value (Day 30, 2% compound I gel, 30 mg topical twice a day) was 3.10 **. For the same compound, the “Hair depigmentation area scoring” value (Day 35, 0.5% compound I gel, 30 mg topical twice a day) was 3.20 **, the “Hair depigmentation area scoring” value (Day 35, 1% compound I gel, 30 mg topical twice a day) was 3.10 ** and the “Hair depigmentation area scoring” value (Day 35, 2% compound I gel, 30 mg topical twice a day) was 2.90 **. The “Hair depigmentation area scoring” value (Day 38, 0.5% compound I gel, 30 mg topical twice a day) was 3.20 **, the “Hair depigmentation area scoring” value (Day 38, 1% compound I gel, 30 mg topical twice a day) was 2.90 ** and the “Hair depigmentation area scoring” value (Day 38, 2% compound I gel, 30 mg topical twice a day) was 2.60 **. The “Hair depigmentation area scoring” value (Day 41, 0.5% compound I gel, 30 mg topical twice a day) was 2.90 **, the “Hair depigmentation area scoring” value (Day 41, 1% compound I gel, 30 mg topical twice a day) was 2.60 ** and the “Hair depigmentation area scoring” value (Day 41, 2% compound I gel, 30 mg topical twice a day) was 2.30 **. The “Hair depigmentation area scoring” value (Day 44, 0.5% compound I gel, 30 mg topical twice a day) was 2.80 **, the “Hair depigmentation area scoring” value (Day 44, 1% compound I gel, 30 mg topical twice a day) was 2.50 ** and the “Hair depigmentation area scoring” value (Day 44, 2% compound I gel, 30 mg topical twice a day) was 2.20 **. For the same compound, the “Hair depigmentation area scoring” value (Day 47, 0.5% compound I gel, 30 mg topical twice a day) was 2.60 **, the “Hair depigmentation area scoring” value (Day 47, 1% compound I gel, 30 mg topical twice a day) was 2.40 ** and the “Hair depigmentation area scoring” value (Day 47, 2% compound I gel, 30 mg topical twice a day) was 2.20 **. The “mean inhibitory rate of depigmentation area scores” value (from here on “mean inhibitory rate”) (Day 50, 0.5% compound I gel, 30 mg (5 mg/cm^2), compared with the model control group) was 52.0%, the “Hair depigmentation area scoring” value (Day 50, 0.5% compound I gel, 30 mg topical twice a day) was 2.50 ** and the “mean inhibitory rate” value (Day 50, 1% compound I gel, 30 mg (5 mg/cm^2), compared with the model control group) was 54.9%. The “Hair depigmentation area scoring” value (Day 50, 1% compound I gel, 30 mg topical twice a day) was 2.30 **, the “mean inhibitory rate” value (Day 50, 2% compound I gel, 30 mg (5 mg/cm^2), compared with the model control group) was 58.8% and the “Hair depigmentation area scoring” value (Day 50, 2% compound I gel, 30 mg topical twice a day) was 2.10 **. The “mean inhibitory rate” value (day 50, high concentration (2%) compound I gel, compared with the blank preparation group) was 51.2%, the “mean inhibitory rate” value (day 50, low concentration (0.5%) compound I gel, compared with the blank preparation group) was 41.9% and the “mean inhibitory rate” value (day 50, medium concentration (1%) compound I gel, compared with the blank preparation group) was 46.5%.
